Active and inactive are the calls of the source.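 The calls were made as follows: active = maximal percent inhibition of the deubiquitinase OTUD3 of at least 30% across the tested doses; inactive = the rest.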
Molecular target: OTU domain-containing protein 3 (Homo sapiens) (UniProt Q5T2D3)
Test: Validation of screening hits, potency titration, in vitro enzymatic, OTU domain-containing protein 3 DUB inhibitors (AID 1645868)
Details: purified OTUD3, ubiquitin-rhodamine cleavage fluorescence, 2 h

Chain of OTU domain-containing protein 3 (Homo sapiens) (Q5T2D3 whole entry, looked up, the tested form may be a part): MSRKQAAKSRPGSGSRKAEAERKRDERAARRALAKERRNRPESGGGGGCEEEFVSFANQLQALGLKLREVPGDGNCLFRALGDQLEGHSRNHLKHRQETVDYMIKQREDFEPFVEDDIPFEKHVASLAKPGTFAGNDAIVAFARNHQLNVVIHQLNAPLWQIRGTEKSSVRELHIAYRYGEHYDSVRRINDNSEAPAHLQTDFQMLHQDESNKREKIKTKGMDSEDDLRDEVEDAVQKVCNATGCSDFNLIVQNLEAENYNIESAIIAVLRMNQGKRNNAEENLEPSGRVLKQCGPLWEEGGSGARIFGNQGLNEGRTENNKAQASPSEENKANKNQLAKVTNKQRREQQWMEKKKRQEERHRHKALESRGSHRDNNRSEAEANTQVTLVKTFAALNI

| Structure (SMILES) | IC50 |
| --- | --- |
| O=C(CCn1c(=O)c2ccccc2n(Cc2cc(=O)n3ccccc3n2)c1=O)NCCc1ccc(Cl)cc1 | 30.6 µM |
| COc1ccc(-c2cc(C(=O)NC3CCCCCC3)[nH]n2)cc1S(=O)(=O)N(C)C | > 50 µM (inactive) |
| COc1ccc(CC(=O)Nc2ccc3nc(N4CCOCC4)cc(C)c3c2)cc1 | > 50 µM (inactive) |
| O=c1c2cc([N+](=O)[O-])ccc2nc(CN2CCN(c3ccccn3)CC2)n1-c1ccccc1F | > 50 µM (inactive) |
| O=C(NCc1ccc2c(c1)OCO2)c1nnc(Cc2ccc(F)cc2)o1 | > 50 µM (inactive) |
| Cc1cc(C)cc(NC(=O)CSc2ccc(-c3ccncc3)nn2)c1 | > 50 µM (inactive) |
| O=C(Cn1c(=O)n(CC(=O)NC2CCCC2)c(=O)c2ccccc21)Nc1cc(Cl)ccc1Cl | 12.1 µM |
| Cc1ccc(C2=Nc3ccccc3N(CC(=O)Nc3cccc(C)c3C)C(=O)C2)cc1C | > 50 µM (inactive) |
| O=c1oc2ccccc2c2nn(-c3ccccn3)cc12 | > 50 µM (inactive) |
| Cc1cc(Cl)c2c(c1)[C@]1(C(=O)N2)N2CCC[C@H]2[C@@H](C(=O)c2cc3ccccc3o2)[C@]12C(=O)Nc1ccccc12 | > 50 µM (inactive) |
| COc1ccc(S(=O)(=O)Nc2ccc(Nc3ccc(-n4cccn4)nn3)cc2)cc1 | > 50 µM (inactive) |
| COc1ccc(NC(=O)CS(=O)(=O)c2[nH]c(-c3ccc(C)cc3)nc2-c2ccccc2)cc1Cl | > 50 µM (inactive) |
| Cc1nc(-c2ccc(C(=O)NCc3ccc(F)cc3)cc2)cs1 | > 50 µM (inactive) |
| C=Cc1ccc(Cn2cc(S(=O)(=O)N3CCOCC3)ccc2=O)cc1 | > 50 µM (inactive) |
| CNC(=O)c1cc2nc(N(C)C)n(-c3ccc(F)cc3)c2s1 | > 50 µM (inactive) |
| CCOc1ccc2c(c1)c(=O)c(C(=O)c1ccc(C)cc1)cn2CC(=O)Nc1ccc(OC)cc1 | > 50 µM (inactive) |
| O=C1CC(O)C(C2=CC(=O)c3c(O)cccc3C2=O)O1 (stereo not given) | 2.47 µM |
| O=C(Cn1cc(S(=O)(=O)Cc2ccc(Cl)cc2)c2ccccc21)N1CCCCC1 | > 50 µM (inactive) |
| O=C(Nc1nc2c(s1)COCC2)c1cc(-c2ccco2)[nH]n1 | > 50 µM (inactive) |
| O=C(CSc1nnnn1-c1ccccc1)Nc1ccccc1 | > 50 µM (inactive) |
| COc1cccc(NC(=O)c2ccc(-c3csc(C)n3)cc2)c1 | > 50 µM (inactive) |
| CCC1OC(O)(C(C)C(O)C(C)C2OC(=O)/C(C)=C/C(C)=CC(C)C(O)C(C)C/C(C)=C/C=C/C2OC)CC(OC(=O)/C=C/C(=O)NC2=C(O)CCC2=O)C1C (stereo not given) | > 50 µM (inactive) |
| Fc1cccc(Cn2cc(-c3noc(-c4ccncc4)n3)nn2)c1 | > 50 µM (inactive) |
| COc1cccc(N2C(=O)N(CC(=O)NCc3ccc(Cl)cc3)c3ccccc3S2(=O)=O)c1 | 20 µM |

| Structure (SMILES) | IC50 |
| --- | --- |
| Cc1cccc(-c2noc(CCn3c(=O)[nH]c4ccccc4c3=O)n2)c1 | > 50 µM (inactive) |
| COc1ccccc1CNC(=O)c1c(O)c2cnn(-c3cccc(C)c3)c2[nH]c1=O | > 50 µM (inactive) |
| COc1ccc2cc1Oc1cc(ccc1OC)C(O)C13SSC4(C(=O)N1C)C(O)C1=COC=CC(OC2=O)C1N4C3=O (stereo not given) | > 50 µM (inactive) |
| COc1ccc(C)cc1NC(=O)COc1ccc2c(c1)OCO2 | > 50 µM (inactive) |
| O=S(=O)(O)c1cc2cc3ccccc3cc2[nH]1 | > 50 µM (inactive) |
| COC(=O)C1C(c2ccc(Cl)cc2Cl)C2(C(=O)c3ccccc3C2=O)C2C=Cc3ccccc3N12 (stereo not given) | > 50 µM (inactive) |
| O=C(Cn1c(=O)n(CCC(=O)N2CC=C(c3ccccc3)CC2)c(=O)c2ccccc21)NCc1ccco1 | > 50 µM (inactive) |
| O=C(CSc1nnc(-c2ccc3c(c2)OCO3)n1-c1ccccc1)OCC(=O)c1ccccc1 | > 50 µM (inactive) |
| COc1cc([C@@H]2c3cc4c(cc3C[C@@H]3COC(=O)[C@H]32)OCO4)cc(OC)c1OC | 20.5 µM |
| CCCOc1ccc(C(=O)Nc2ccc(S(=O)(=O)Nc3cc(C)nc(C)n3)cc2)cc1 | > 50 µM (inactive) |
| CCc1cc2c(=O)[nH]c(Cc3ccc(OC)cc3)nc2s1 | 33.4 µM |
| COc1cc(NC(=O)c2ccc3c(c2)OCO3)ccc1-c1cc2ccccc2oc1=O | > 50 µM (inactive) |
| O=C(Nc1ccccc1Br)c1ccn(COc2ccccc2F)n1 | 46.7 µM |
| Clc1cc2nc(N3CCN(c4ccccn4)CC3)c3nncn3c2cc1Cl | 4.78 µM |
| O=c1c(S(=O)(=O)c2cc(F)cc(F)c2)c[nH]c2cc(Cl)ccc12 | 40.1 µM |
| O=C(Cn1cnc(-c2noc(-c3ccncc3)n2)c1)N1CCN(c2ccccc2F)CC1 | > 50 µM (inactive) |
| O=C(NCC1CC1)C1CCCN(c2ccc(-c3ccccc3)nn2)C1 (stereo not given) | > 50 µM (inactive) |
| COCCCn1c(C(=O)Nc2ccccc2OC)cc2c(=O)n3ccccc3nc21 | > 50 µM (inactive) |
| c1csc(CCN2CCc3nc4cccnc4cc3C2)c1 | > 50 µM (inactive) |
| c1coc(CNc2nc3ccccc3n3nnnc23)c1 | > 50 µM (inactive) |
| N#Cc1ccccc1Cn1c(=O)n(Cc2ccco2)c(=O)c2ccccc21 | > 50 µM (inactive) |
| COc1cccc(-c2cc(C(=O)N3CCN(c4ccc(N5CCOCC5)nn4)CC3)[nH]n2)c1 | > 50 µM (inactive) |
| O=C(CNC(=O)OCc1ccccc1)Nc1ccc(Br)cc1C(=O)c1ccccc1Cl | 13.4 µM |
| O=C(COC(=O)c1ccc(CN2CCCC2=O)cc1)c1ccc2c(c1)OCCO2 | > 50 µM (inactive) |

| Structure (SMILES) | IC50 |
| --- | --- |
| COc1ccc(-n2nnc3c(SCC(=O)Nc4cc(C)on4)ncnc32)cc1 | > 50 µM (inactive) |
| O=C(CCc1ccc(S(=O)(=O)N2CCOCC2)cc1)Nc1ccc2c(c1)OCCO2 | > 50 µM (inactive) |
| Cc1ccccc1NC(=O)Nc1ccccc1OCc1cc(=O)n2cccc(C)c2n1 | 4.24 µM |
| COc1cccc(CCNC(=O)CCn2c(=O)c(C)nc3cc(C)c(C)cc32)c1 | > 50 µM (inactive) |
| COc1cc(NC(=O)c2cc(CN3CCOCC3)on2)cc(OC)c1 | > 50 µM (inactive) |
| COc1cc(-c2ccno2)ccc1S(=O)(=O)Nc1ccccc1Cl | > 50 µM (inactive) |
| O=C(NCc1ccc(F)cc1)N1CCC2(C1)Nc1cccnc1NC2=NCc1ccccc1 (stereo not given) | > 50 µM (inactive) |
| COc1ccc(NC(=O)c2[nH]nc3c2COc2ccccc2-3)c(OC)c1 | 19.1 µM |
| Cc1cc(C(=O)CSc2nc3ccccc3[nH]2)c(C)n1Cc1ccco1 | > 50 µM (inactive) |
| O=C(NCc1ccc(-c2nc3cnccc3o2)cc1)c1cc2ccccc2o1 | > 50 µM (inactive) |
| CN(C)S(=O)(=O)N1CCCC2(C1)Nc1cccnc1NC2=NC1CCCC1 (stereo not given) | > 50 µM (inactive) |
| O=C(Nc1ccc2nccnc2c1)c1cccc(C(F)(F)F)c1 | > 50 µM (inactive) |
| O=C(Nc1ccccc1Cl)N(Cc1cc2cc3c(cc2[nH]c1=O)OCCO3)C1CCCCC1 | 40.6 µM |
| COc1ccc2nc(Nc3nc(-c4cnc(N5CCOCC5)nc4C)cc(=O)[nH]3)nc(C)c2c1 | > 50 µM (inactive) |
| O=C(COc1ccc(F)cc1)Nc1cc(F)c2nc(N3CCOCC3)ccc2c1 | > 50 µM (inactive) |
| Cc1ccc(C2c3c(-c4ccccc4O)n[nH]c3C(=O)N2Cc2ccco2)cc1 (stereo not given) | 30.4 µM |
| COc1ccc(C)cc1NC(=O)Cc1csc(NC(=O)c2ccc(=O)[nH]c2)n1 | > 50 µM (inactive) |
| Fc1ccc(Cc2nc(-c3ccc4nncn4c3)no2)cc1 | > 50 µM (inactive) |
| Cc1sc2ncnc(OCc3ccc(F)cc3Cl)c2c1C | > 50 µM (inactive) |
| FC(F)(F)c1ccccc1CCN1CCc2nc3ccc(Cl)cc3cc2C1 | > 50 µM (inactive) |
| CCn1c(COc2cccc(C(F)(F)F)c2)nnc1SCc1ccc(Cl)cc1 | 28.8 µM |
| CC(C)c1nc2sc3c(N(CCO)CCO)ncnc3c2c2c1COC(C)(C)C2 | > 50 µM (inactive) |
| CC1CCCN(CCCNC(=O)c2ccc(N3CCc4ccccc43)s2)C1 (stereo not given) | > 50 µM (inactive) |
| O=C1N(Cc2ccc(F)cc2)CCN1c1ccc(C(F)(F)F)cn1 | > 50 µM (inactive) |

| Structure (SMILES) | IC50 |
| --- | --- |
| COc1ccc(-n2ccn3c(CCC(=O)NCc4ccc(F)cc4)nnc3c2=O)cc1 | 33.3 µM |
| CC1CCN(c2nc(F)c3c(c2F)S(=O)(=O)CCN3Cc2cccnc2)CC1 | > 50 µM (inactive) |
| Cc1cc(C)nc(-n2nc(C)c3c2NC(=O)CSC3c2ccc(F)cc2F)n1 (stereo not given) | 47.2 µM |
| CCCCNc1nc2c(-c3ccccc3)nnn2c2ccccc12 | > 50 µM (inactive) |
| CCOc1ccc(CCNC(=O)c2cccc3c2C(=O)N(CCOC)C3)cc1OCC | > 50 µM (inactive) |
| COc1ccc(CNc2nn3c(-c4cncc(OC)c4)cnc3s2)cc1 | > 50 µM (inactive) |
| O=S(=O)(Nc1ccc(O)cc1)c1ccc2oc3ccc(S(=O)(=O)Nc4ccc(O)cc4)cc3c2c1 | 46.1 µM |
| O=C(NCCCN1CCc2ccccc2C1)c1cc2c(s1)CS(=O)(=O)C2 | > 50 µM (inactive) |
| CC(C)Cc1cc(-c2nnc3sc(-c4ccco4)nn23)n[nH]1 | > 50 µM (inactive) |
| Cc1ccc2c(C)nc(Nc3ncc4c(n3)CC(c3ccco3)CC4=O)nc2c1 (stereo not given) | 0.168 µM |
| O=C(NCc1cccnc1)c1cnn2c(C(F)(F)F)cc(-c3ccc(F)cc3)nc12 | > 50 µM (inactive) |
| O=C(Nc1cccc(C(F)(F)F)c1)c1cc2c(s1)-c1ccccc1OC2 | 15.2 µM |
| O=C(Nc1ccc(Br)cn1)c1nc2ccccc2nc1N1CCCCC1 | > 50 µM (inactive) |
| COc1cccc(C(=O)NCc2[nH]nc3ccccc23)c1 | > 50 µM (inactive) |
| Cc1ccc2c(c1)N(Cc1nc(-c3ccc(F)cc3)no1)C(=O)CO2 | > 50 µM (inactive) |
| CC(C)(C)c1ccc(C(=O)Nc2ccc(Cn3cncn3)cc2)cc1 | > 50 µM (inactive) |
| O=c1sc2ccccc2c(=O)n1Cc1cccc(C(F)(F)F)c1 | > 50 µM (inactive) |
| CC(=O)Nc1ccc([C@H]2OCC(=O)N(C3CCOCC3)[C@@H]2CO)cc1 | > 50 µM (inactive) |
| O=C(CN1CCCc2ccccc21)Nc1ccc(N2CCOCC2)cc1 | > 50 µM (inactive) |
| Cc1ccc2c(c1)[C@]1(C(=O)N2)[C@@H](C(=O)c2ccccc2)[C@]2(C(=O)Nc3ccccc32)[C@@H]2CCCN21 | 25.1 µM |
| Cc1nc(N2CCCC2)ncc1C(=O)Nc1ccc(F)c(F)c1 | > 50 µM (inactive) |
| CSc1ccccc1C(=O)Nc1nc(-c2ccncc2)cs1 | 46.3 µM |
| Cc1[nH]nc(NC(=O)C2COc3ccccc3O2)c1-c1ccccc1 (stereo not given) | 26.6 µM |
